Results taken from the NIST ThermoML archive (doi:10.1021/acs.jced.7b00265).

Assay: molar heat capacity at constant pressure; mn = molality of the nth substance listed, in mol/kg
Conditions: 100 kPa, Liquid, DSC

O=S(=O)([O-])[O-].[Mg+2] [magnesium sulfate] + O
molar heat capacity at constant pressure [J/K/mol]
Conditions	m1 = 0.0546	m1 = 0.1089	m1 = 0.213	m1 = 0.526	m1 = 1.001	m1 = 1.502	m1 = 2.012	m1 = 2.495	m1 = 2.775
248.15 K	–	–	–	–	–	–	67.27	67.05	67.13
253.15 K	–	–	–	–	–	68.74	67.94	67.75	67.86
258.15 K	–	–	–	72.91	–	69.24	68.52	68.37	68.51
263.15 K	76.21	–	–	72.94	70.95	69.74	69.11	68.98	69.12
268.15 K	75.8	75.41	74.68	73	71.26	70.17	69.62	69.54	69.7
273.15 K	75.56	75.23	74.58	73.08	71.54	70.59	70.1	70.03	70.24
278.15 K	75.36	75.07	74.49	73.15	71.78	70.94	70.49	70.46	70.7
283.15 K	75.24	74.96	74.44	73.23	71.98	71.23	70.88	70.89	71.11
288.15 K	75.16	74.9	74.44	73.34	72.23	71.56	71.27	71.27	71.57
293.15 K	75.09	74.85	74.42	73.44	72.41	71.83	71.57	71.63	71.94
298.15 K	75.05	74.83	74.44	73.55	72.65	72.12	71.91	72.01	72.35

O=S(=O)([O-])[O-].[K+].[K+] [potassium sulfate] + O
molar heat capacity at constant pressure [J/K/mol]
Conditions	253.15 K	258.15 K	263.15 K	268.15 K	273.15 K	278.15 K	283.15 K	288.15 K	293.15 K	298.15 K
m1 = 0.1142	–	–	75.36	75.07	74.96	74.83	74.81	74.85	74.83	74.77
m1 = 0.201	–	–	74.67	74.5	74.48	74.33	74.39	74.45	74.46	74.43
m1 = 0.296	–	–	73.96	73.87	73.91	73.89	73.98	74.02	74.15	74.11
m1 = 0.415	73.75	73.5	73.32	73.32	73.42	73.4	73.55	73.65	73.77	73.77
m1 = 0.515	–	73.06	72.94	72.98	73.12	73.16	73.33	73.41	73.53	73.53
m1 = 0.606	–	–	72.64	72.74	72.9	72.92	73.14	73.21	73.33	73.33

O=S(=O)([O-])[O-].[Na+].[Na+] [sodium sulfate] + O
molar heat capacity at constant pressure [J/K/mol]
Conditions	253.15 K	258.15 K	263.15 K	268.15 K	273.15 K	278.15 K	283.15 K	288.15 K	293.15 K	298.15 K
m1 = 0.1012	–	76.36	75.81	75.43	75.23	75.08	74.99	74.95	74.93	74.97
m1 = 0.253	–	75.13	74.91	74.72	74.63	74.57	74.55	74.57	74.57	74.63
m1 = 0.501	–	74.17	74.13	74.09	74.11	74.15	74.2	74.28	74.32	74.4
m1 = 0.748	73.94	73.9	73.96	74.02	74.08	74.13	74.23	74.33	74.39	74.47
m1 = 1	73.97	74.01	74.15	74.21	74.31	74.39	74.49	74.62	74.68	74.76
m1 = 1.33	74.4	74.53	74.72	74.84	74.95	75.03	75.11	75.22	75.28	75.37
m1 = 1.517	–	74.71	74.81	75.03	75.22	75.33	75.52	75.65	75.77	75.8
m1 = 2.084	–	–	–	–	–	–	77.16	77.32	77.39	77.32
